Measured values taken from patent US7951407B2, “Ruminant feed containing N-carbamoyl glutamate” (University of Maryland, priority 2003, dated 2011).

How the values were obtained:
[1] = tested on: Ruminal epithelial cells (REC); experiment: Net urea production by isolated ruminal epithelial cells incubated with ornithine-urea cycle substrate intermediates; type: cell-based, sheep; set-up: net urea production: dose or concentration left out as unconfirmed
Source text: Ruminal epithelial cells (REC) and duodenal mucosal cells (DMC) were harvested from four growing Polypay ram lambs (33.1 plus/minus 4.8 kg body weight) fed a pelleted diet comprised of 55% forage (alfalfa hay) and 45% concentrate (dry ground corn. soybean meal, and premix of minerals and vitamins) ad libitum for at least two weeks before slaughter. All animal procedures were approved by the Beltsville Agricultural Research Center Institutional Animal Care and Use Committee (protocol # 02-008). Gut cells were isolated separately for each sheep following the procedures described by Baldwin and McLeod and Oba et al. Cell viability averaged 73.1% for REC and 82.4% for DMC. […] N-carbamoyl glutamate is a stable analog of […] stimulator of carbamoyl phosphate synthetase. Treatments were arranged in a 2×4 factorial design, and performed in triplicate incubations for each sheep. […] Krebs-Ringer plus 24 mM HEPES and 0.12 M sodium bicarbonate) was oxygenated with O2:CO2 (95:5) and the pH adjusted to 7.4. Incubations were initiated by addition of 0.5 ml of cell suspension (1×10^7 viable cells) to freshly gassed (20 s under 95:5 O2:CO2) media, and flasks were placed into a reciprocal action shaking water bath at 37° C. After 90 min, 0.2 ml of concentrated HClO4 was injected into the flasks to terminate the incubation, followed by addition of 0.3 ml of 5.8 M K2CO3 to neutralize the media. […] See Lobley, G. E. et al., Br. J. Nutr. […] Urea concentration was determined by isotope dilution with gas chromatography-mass spectrometry (HP6890 coupled to an HP5973 Mass Selective Detector, Agilent, Palo Alto, Calif.) essentially according to the known method of Calder et al. See Calder, A. G., Rapid Commun. […] Net urea production was calculated by subtracting background urea present at time 0 (Control) from concentrations after 90-min incubation. Data were analyzed separately for REC and DMC using the Proc Mixed procedure of SAS (SAS Inc., Cary, N.C.) with fixed effect of VFA type, substrate combination, their interactions, and random effect of animals in the model.

[2] = tested on: duodenal mucosal cells (DMC); experiment: Net urea production by isolated duodenal mucosal cells incubated with ornithine-urea cycle substrate intermediates; type: cell-based, sheep; set-up: net urea production: dose or concentration left out as unconfirmed
Source text: Ruminal epithelial cells (REC) and duodenal mucosal cells (DMC) were harvested from four growing Polypay ram lambs (33.1 plus/minus 4.8 kg body weight) fed a pelleted diet comprised of 55% forage (alfalfa hay) and 45% concentrate (dry ground corn. soybean meal, and premix of minerals and vitamins) ad libitum for at least two weeks before slaughter. All animal procedures were approved by the Beltsville Agricultural Research Center Institutional Animal Care and Use Committee (protocol # 02-008). Gut cells were isolated separately for each sheep following the procedures described by Baldwin and McLeod and Oba et al. Cell viability averaged 73.1% for REC and 82.4% for DMC. […] Urea concentration was determined by isotope dilution with gas chromatography-mass spectrometry (HP6890 coupled to an HP5973 Mass Selective Detector, Agilent, Palo Alto, Calif.) essentially according to the known method of Calder et al. See Calder, A. G., Rapid Commun. […] Net urea production was calculated by subtracting background urea present at time 0 (Control) from concentrations after 90-min incubation. Data were analyzed separately for REC and DMC using the Proc Mixed procedure of SAS (SAS Inc., Cary, N.C.) with fixed effect of VFA type, substrate combination, their interactions, and random effect of animals in the model.

## N=C(N)NCCC[C@H](N)C(=O)O [Arg, arginine]
[1]; REC versus DMC in the presence of arginine
  net urea production by REC relative to DMC: 25 fold
[1]; REC, 90 min incubation in media, background urea at time 0 subtracted
  net urea production: 54.5±6.3 nmoles·10^6 cells^−1 90 min^−1
[2]; 90 min incubation in media, background urea at time 0 subtracted
  net urea production: 2.1±0.7 nmoles·10^6 cells^−1 90 min^−1

## NC(=O)N[C@@H](CCC(=O)O)C(=O)O [N-carbamoyl glutamate]
[1]; REC, AspONG versus AspON (P=0.11)
  effect of N-carbamoyl glutamate addition on urea synthesis: stimulatory effect
[2]; AspONG versus AspON (P<0.001)
  effect of N-carbamoyl glutamate addition on urea synthesis: stimulatory effect
